System: M. tuberculosis H37Rv growth with meropenem, percent inhibition
Experiment: beta-lactam sensitization of Mtb H37Rv, H37Rv (AID 434955)

SMILES | IC90
CCCOc1ccc(C(=O)CCN2CCCCC2)cc1 | 36.4 µM
Cn1c(/C=N/c2nc3ccccc3[nH]2)nc2ccccc21 | 4.17 µM
O=C(CCNc1ccccc1)c1cccc([N+](=O)[O-])c1 | 45.8 µM
Cc1cc(Br)ccc1NC(=O)CN1C(=O)C2CC=CCC2C1=O (stereo not drawn) | 38.7 µM
COc1cc2nc(N3CCN(C(=O)OCc4ccccc4)[C@H](C(=O)NC(C)(C)C)C3)nc(N)c2cc1OC | 84 µM
COc1ccc2c(c1)c(C(C)=O)c(C)n2-c1ccccc1 | 6.92 µM
O=C(NN1C(=O)c2cc(Br)ccc2NC1c1ccccc1Cl)c1ccncc1 (stereo not drawn) | 13.7 µM
c1ccc(-c2cc(N3CCOCC3)nc3ccccc23)cc1 | 91.5 µM
CCC(=O)N1CCN(c2ccc(NC(=S)NC(=O)c3ccc(OC)c([N+](=O)[O-])c3)cc2)CC1 | 67.8 µM
CCC(C)NCCOCCOc1ccc(Cl)c2ccccc12 (stereo not drawn) | 50.7 µM
COC(=O)c1sc(-c2ccc(C(C)(C)C)cc2)cc1NC(=O)CCC(=O)O | 28.7 µM
COc1ccccc1NS(=O)(=O)c1cccc(N2CC(O)=C(c3ccccc3)C2=N)c1 | 16 µM
CCOC(=O)COc1ccc2nsnc2c1 | 26 µM
Cc1cccc(Nc2nnc(SCC(=O)Nc3ncc(C(F)(F)F)cc3Cl)s2)c1C | 21.5 µM
CC(=O)Nc1ccc(SCC(=O)c2cc(C)n(C)c2C)cc1 | 53.6 µM
OCCCc1cn(-c2ccccc2)c2ccccc12 | 60.8 µM
Cn1nnnc1Sc1ncnc2scc(-c3ccc(C(F)(F)F)cc3)c12 | 15 µM
C/C(CC(=O)Nc1c(C)cc(C)cc1C)=N\NC(=O)c1cnccn1 | 17.4 µM
Cc1ccccc1CSc1nnc(C)c(=O)n1N | 32.3 µM
C=CCNC1=C(Cl)C(=O)N(c2cccc(Cl)c2Cl)C1=O | 30.2 µM
CCN(CC)CCCNC(=O)c1c(O)c2ccccc2n(Cc2ccccc2)c1=O | 13.8 µM
Nc1nc(Sc2ncccc2[N+](=O)[O-])n[nH]1 | 77.1 µM
COCc1cc(=O)n2[nH]cc(-c3ccccc3)c2n1 | 15.5 µM
C/C(=N\NC(=O)c1ccncc1)c1c(O)n(-c2ccccc2)c(=O)[nH]c1=O | 3.94 µM

SMILES | IC90
COc1ccc(NC(=O)c2cc(C)nc3ccccc23)c(OC)c1 | 12.9 µM
O=C(COC(=O)c1ccc(Cl)cc1[N+](=O)[O-])NNC(=O)c1cccs1 | 51.1 µM
CCC(CC)c1nnc(NC(=O)c2ccc(N3CCCCC3)c([N+](=O)[O-])c2)s1 | 44 µM
S=C(NNc1ccc2ccccc2c1)NC1CCCCC1 | 41.3 µM
Cc1cccc(Cl)c1NC(=S)NN | 55.1 µM
CC(C)(C)c1ccc(OCc2ccc(C(=O)N/N=C3\CC4CC=CC34)cc2)cc1 (stereo not drawn) | 45.3 µM
Cc1ccc(C)c(N2CCN(CC3CC=CCC3)CC2)c1 (stereo not drawn) | 60.7 µM
c1ccc(-n2c3ccccc3c3ccccc32)cc1 | 22.7 µM
CCOc1ccc(N=c2cc(-c3ccc(OC)cc3)oc3ccccc23)cc1 | 50.3 µM
Cn1ccnc1C(=O)Cc1ccc([N+](=O)[O-])cc1 | 22.6 µM
CN(C)S(=O)(=O)c1ccc(C(=O)/C=C/c2cccnc2)cc1 | 12.1 µM
O=C(Nc1ccccc1)Nc1csc2ccccc12 | 20.9 µM
Cc1cc(C2C(=O)c3ccccc3C2=O)c(C)c(C)c1C | 16.4 µM
Cc1cc(=S)nc(-c2ccccn2)[nH]1 | 19.7 µM
O=C1C(Cl)=C(N2CCCCCC2)C(=O)N1c1ccc(Br)cc1 | 19.4 µM
O=C1OC(/C=C/c2ccc(Cl)cc2Cl)=NC/1=C\c1cccs1 | 33.4 µM
C=C(C)C(=O)O[C@H]1C/C(C)=C\C(=O)/C=C(\C)[C@H](O)[C@@H]2OC(=O)C(=C)[C@@H]21 | 31.3 µM
O=C1S/C(=C\C=C\c2ccco2)C(=O)N1c1ccccc1 | 77.6 µM
CC1CCN(C(=S)NC(=O)c2ccccc2)CC1 | 13.6 µM
CCN(CC)C(=O)CSc1nnc2nnc3cc(OC)ccc3n12 | 13.4 µM
CN(C)C1=C(Cl)C(=O)N(c2ccc(Cl)c(Cl)c2)C1=O | 14.9 µM
C=CCN=c1scc(-c2ccc(F)cc2)n1/N=C/c1ccccn1 | 71.7 µM
O=c1oc(-c2ccccc2F)nc2scc(-c3ccccc3)c12 | 3.05 µM
Cc1cccc(N2CCN(CC3CCCCC3)CC2)c1C | 53.2 µM

SMILES | IC90
CCCc1cc(C(=O)Nc2ccc(C(C)=O)cc2)no1 | 48.8 µM
O=C(CCN1CCOCC1)c1ccc(N2CCCCC2)cc1 | 72.7 µM
Nc1ccc(N=Nc2ccccc2O)c(N)c1 | 34 µM
CCCCN(CC)S(=O)(=O)c1ccc(C(=O)Nc2nnc(CSC)o2)cc1 | 31.7 µM
Cc1cccc(CSc2nnc(C)c(=O)n2N)c1 | 9.9 µM
CCOC(=O)CSc1nnc(CNC(=O)c2cccs2)n1CCc1ccccc1 | 49.5 µM
Cc1[nH]n(-c2ccccc2)c(=O)c1/C=N/NC(=O)c1ccoc1C | 3.01 µM
CN(C)CCCN(C(=O)/C=C/c1cccs1)c1nc2ccc(F)cc2s1 | 48.4 µM
Cc1cccc(C)c1OCC(=O)NNC(=O)CNC(=O)c1ccc(OC(F)F)cc1 | 98.1 µM
CCc1cc(C(N)=S)ccn1 | 12.8 µM
CCOC(=O)c1c(C)[nH]c(C)c1C(=O)COC(=O)/C=C/c1ccc(OC(F)F)cc1 | 91.4 µM
COC(=O)Cn1c2ccccc2c2nc(C)sc21 | 27.8 µM
CC(C)(C)NCCCOc1ccc(Cl)cc1C(C)(C)C | 26.9 µM
O=S(=O)(Cc1ccccc1)c1cnc2ccccc2n1 | 48.6 µM
COc1cc(NC(=O)c2cccc(Cl)c2)c(OC)cc1NC(=O)CN1CCCCC1 | 75.5 µM
Cc1nn(-c2ccccc2)c(Cl)c1CN(C(=O)CCl)c1cccc2ccccc12 | 48.2 µM
CCCCNC(=O)c1onc(CSc2ccccc2C)c1C(=O)O | 50.6 µM
O=C(Nc1ccc2nc3n(c(=O)c2c1)CCCC3)c1cc([N+](=O)[O-])ccc1F | 91 µM
Cc1ccc(C)c(N2CCN(CC3CCCCC3)CC2)c1 | 52.4 µM
COc1cc(NC(=O)c2ccccc2)c(OC)cc1NC(=O)CN1CCOCC1 | 69.2 µM
CC/C(=N\NC(=O)c1ccc(-c2ccccc2)cc1)C12CC3CC(CC(C3)C1)C2 | 43.7 µM
Cc1ccc(-c2[nH][nH]c(=O)c(=O)c2N=Nc2ccccc2)cc1 | 86.2 µM
COC(=O)C1=C(C)NC(=O)/C1=C\c1cc(C)n(-c2c(C)cccc2C)c1C | 99.8 µM
O=C(CSc1ncn[nH]1)Nc1cccc2ccccc12 | 65 µM

SMILES | IC90
O=C(CCSc1ccc(Cl)c(Cl)c1)NC12CC3CC(CC(C3)C1)C2 | 12.3 µM
S=C(NN=C1C2CC3CC(C2)CC1C3)Nc1ccccc1 | 51.4 µM
CCC(C(=O)NC1C(=O)N2C(C(=O)O)=C(CSc3nnc(C)s3)CSC12)c1ccccc1 (stereo not drawn) | 1.57 µM
CCOc1ccc2c(c1)c(C(C)=O)c(C)n2-c1ccccc1 | 1.96 µM
CCCCNC(=O)c1onc(CSc2ccc(OC)cc2)c1C(=O)O | 27.2 µM
CN1CCN(c2ccc(NC(=O)c3ccc(-c4cccc([N+](=O)[O-])c4)o3)cc2)CC1 | 6.71 µM
O=C(Oc1c(-c2ccccc2)c(=O)n2c3c(cccc13)CC2)c1ccc(F)cc1 | 34 µM
O=C(c1ccc(-c2ccc(Cl)cc2)o1)N1CCN(S(=O)(=O)c2cccs2)CC1 | 99.6 µM
Cc1c(OCc2ccc(C(=O)O)cc2)ccc2c(-c3ccccc3)cc(=O)oc12 | 2.09 µM
Cc1ccc(CN2C(=O)N/C(=C\c3ccc(-c4ccc(C(=O)O)cc4C)o3)C2=O)cc1 | 14.7 µM
O=C1O/C(=C/c2ccccc2)N=C1c1ccccc1 | 28.3 µM
CC1CCc2c(sc(NC(=O)CCCn3cnc([N+](=O)[O-])n3)c2C(N)=O)C1 (stereo not drawn) | 90.4 µM
O=C(OCn1nnc2ccccc2c1=O)c1ccc2c(=O)n3c(nc2c1)CCC3 | 26.1 µM
O=C(CCl)N(c1ccccc1)C1CCS(=O)(=O)C1 (stereo not drawn) | 13.9 µM
O=C(NCC1COc2ccccc2O1)C1CCC(CNc2c(N3CCCCC3)c(=O)c2=O)CC1 (stereo not drawn) | 26.7 µM
Cc1ccc(C)c(SCc2noc(C(=O)NCC3CCCO3)c2C(=O)O)c1 (stereo not drawn) | 48 µM
CCNc1nc(CN2CCCCC2)nc2scc(-c3ccccc3)c12 | 57.3 µM
COc1ccc(C(=O)CN(C(=O)c2ccc(Cl)cc2)N2C(=O)c3ccccc3C2=O)cc1 | 22.4 µM
O=C(Nc1cccc(Cl)c1N1CCOCC1)c1ccc([N+](=O)[O-])o1 | 38.2 µM
Cc1cc(C(=O)CN2C(=O)NC(C)(CC(C)C)C2=O)c(C)n1-c1ccc2c(c1)OCO2 (stereo not drawn) | 96.4 µM
O=C(CSC1CS(=O)(=O)c2cc([N+](=O)[O-])ccc21)NNC(=O)c1ccccc1 (stereo not drawn) | 13.3 µM
O=C(N/N=C/c1ccc([N+](=O)[O-])o1)c1ccccc1-n1cccc1 | 29.4 µM
O=C(N/N=C/c1ccc(OC(=O)c2ccc3c(c2)OCO3)cc1)c1cncc(Br)c1 | 48.3 µM
O=C1OC(/C=C/c2ccccc2)=NC/1=C/c1ccco1 | 13.9 µM

SMILES | IC90
O=C(N[C@@H](Cc1ccccc1)C(=O)CCl)OCc1ccccc1 | 46.9 µM
COc1ccccc1C(c1c(N)n(C)c(=O)n(C)c1=O)C(C)[N+](=O)[O-] (stereo not drawn) | 18 µM
CCN(CC)c1ccc(CN2CCCCCC2)cc1 | 49.4 µM
Cc1c(C=O)c(C=O)c(C)n1Cc1ccccc1 | 69.3 µM
Cc1nnnn1/C(=C\c1ccccc1)C(=O)OCC(=O)Nc1ccc(Cl)cc1F | 25.5 µM
O=c1oc(-c2cccs2)nc2sc3c(c12)CCCC3 | 29.7 µM
Cc1onc(-c2ccccc2Cl)c1C(=O)NCc1ccc2c(c1)cc(C)n2C | 29.4 µM
CO/N=C(\C(=O)N[C@@H]1C(=O)N2C(C(=O)O)=C(COC(C)=O)CS[C@H]12)c1csc(N)n1 (stereo in doubt) | 41.7 µM
Cc1cc(C)cc(NC(=O)c2cc(Cl)sc2Cl)c1 | 7.73 µM
COc1cccc(/C=C/c2[nH]c(=O)[nH]c(=O)c2[N+](=O)[O-])c1O | 15.9 µM
O=C(/C=C/c1cccnc1)c1ccc(O)cc1 | 50.4 µM
Cc1cc(=O)[nH]c(N/N=C/c2c(O)n(-c3ccccc3)c(=O)c3ccccc23)n1 | 13.6 µM
C/C(=N/NC(=O)c1ccccn1)c1ccncc1 | 23.1 µM
Cc1ccc(C(=O)Nc2c(C)cc(C)c3cccnc23)cc1 | 10.5 µM
O=C1COc2ccc(C(=O)CCl)cc2N1 | 44.4 µM
COc1ccccc1N1CCN(CC(=O)Nc2cc(F)ccc2C)CC1 | 91 µM
Nc1ccc(C(=O)O)c(O)c1 | 1.88 µM
COCCCn1c(=O)/c(=C\c2cccc(OC)c2OC)s/c1=C(/C#N)C(=O)Nc1ccc(C(=O)O)cc1 | 24.6 µM
CC1(C)CCN2CCC(C)(C)c3c(O)ccc1c32 | 49.3 µM
COc1ccc(C(=O)/C=C/c2ccc(O)cc2)c(O)c1CC=C(C)C | 75.1 µM
O=C1CS/C(=N/N=C2C3CC4CC(C3)CC2C4)N1 | 13.8 µM
O=c1oc(-c2ccco2)nc2sc3c(c12)CCCCC3 | 38.5 µM

From PubChem BioAssay AID434955 (Southern Research Specialized Biocontainment Screening …, 2010)
